ChEMBL document CHEMBL1135301, “Imidazole-based ligands of the Src SH2 protein” (Bioorg Med Chem Lett, 2002)
pIC50: −log10 of the molar value.

Molecular target: Proto-oncogene tyrosine-protein kinase Src (Homo sapiens, UniProt P12931)
Test: Binding affinity for p60 c-Src SH2 domain by scintillation proximity assay (SPA)

Sequence of Proto-oncogene tyrosine-protein kinase Src (P12931 2-536 limits assumed): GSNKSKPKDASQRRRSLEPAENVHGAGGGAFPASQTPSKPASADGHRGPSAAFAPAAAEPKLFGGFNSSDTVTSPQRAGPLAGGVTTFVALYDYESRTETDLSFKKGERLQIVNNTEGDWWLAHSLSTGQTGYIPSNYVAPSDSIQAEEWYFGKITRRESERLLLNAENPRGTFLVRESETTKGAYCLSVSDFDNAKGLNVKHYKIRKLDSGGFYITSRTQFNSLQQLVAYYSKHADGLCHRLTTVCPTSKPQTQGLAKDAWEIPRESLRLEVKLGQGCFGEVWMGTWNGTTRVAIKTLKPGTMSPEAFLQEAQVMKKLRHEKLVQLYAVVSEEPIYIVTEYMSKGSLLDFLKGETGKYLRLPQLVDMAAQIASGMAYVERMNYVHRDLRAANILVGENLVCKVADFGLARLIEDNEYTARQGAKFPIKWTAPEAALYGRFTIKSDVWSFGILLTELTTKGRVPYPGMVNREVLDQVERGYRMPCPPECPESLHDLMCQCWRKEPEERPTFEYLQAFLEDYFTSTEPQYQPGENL

Row | pIC50 | SMILES
1 | 5.07 | CC(=O)N[C@@H](Cc1ccc(OP(=O)(O)O)cc1)C(=O)NC(C)c1nc(SCC2CCCCC2)c(C(N)=O)n1C (stereo partly drawn)
2 | 5.16 | CCOC(=O)c1c(SCC2CCCCC2)nc(C(C)NC(=O)[C@H](Cc2ccc(OP(=O)(O)O)cc2)NC(C)=O)n1C (stereo partly drawn)
3 | 5.28 | CC(=O)N[C@@H](Cc1ccc(C(F)(F)P(=O)(O)O)cc1)C(=O)NC(C)c1nc(SCC2CCCCC2)c(C(N)=O)n1C (stereo partly drawn)
